According to ChEMBL document CHEMBL6153079, “Discovery of noncovalent diaminopyrimidine-based Inhibitors for glioblastoma via a dual FAK/DNA targeting strategy” (Eur J Med Chem, 2025):

Test system: U-87 MG
Assay: Induction of cell cycle arrest in human U-87 MG cells assessed as accumulation of cells at […] at 0.02 uM by propidium Iodide staining based flow cytometry analysis (reference value: 1.67%)
Format: functional, U-87MG ATCC

**Q.** Which Activity does the source give for CNC(=O)c1ccccc1Nc1nc(Nc2ccc(N3CCN(CCOC(=O)CCCc4ccc(N(CCCl)CCCl)cc4)CC3)cc2)ncc1C(F)(F)F here?
**A.** The Activity was 1.87%.
